{"source": "patent US20260207769A1", "about": "“ANTIBODY DRUG CONJUGATES” (YALE UNIVERSITY, priority 2022, published 2026)", "key": {"[1]": {"tested_on": "DAYO medulloblastoma cells", "test": "Cell viability of DAYO cells (DM1, cD31N-DM1)", "format": "cell-based", "conditions": "after 3 days", "text": "(§1) Cancer cell lines were acquired from ATCC and cultured according to well known methods in the art. Treatment with cytotoxic agents, antibodies, or ADCs refers to the addition of the cytotoxic agent, antibody or ADC (i.e., DM1 or cD31N-DM1, etc.) to the culture media for a set duration."}, "[2]": {"tested_on": "B16 melanoma cells", "test": "Cell viability of B16 melanoma cells (DM1, cD31N-DM1)", "format": "cell-based", "conditions": "0.0001 nm to 1000 nm, after 3 days", "text": "as §1"}, "[3]": {"tested_on": "PEO-4 (WT) ovarian adenocarcinoma cells", "test": "Cell viability of PEO-4 cells", "format": "cell-based", "conditions": "WT PEO-4 cells, after 5 days", "text": "as §1\n(§2) The effects of longer-term treatment with SN38 and cD31N-SN38 on PEO-4 (WT) and PEO-1 (BRCA2^−/−) ovarian cancer cells were investigated."}, "[4]": {"tested_on": "PEO-1 (BRCA2^−/−) ovarian adenocarcinoma cells", "test": "Cell viability of PEO-1 cells", "format": "cell-based", "conditions": "BRCA2-/- PEO-1 cells, after 5 days", "text": "as §1, §2"}, "[5]": {"tested_on": "WT DLD-1 colorectal adenocarcinoma cells", "test": "Cell viability assay in WT DLD-1 cells", "format": "cell-based, human", "conditions": "after 6 days", "text": "as §1\n(§3) BRCA2 deficient (BRCA2′) cells are more sensitive to DM1 because BRCA2 participates in DNA double-stranded break (DSB) repair.\nThe viability assay protocol is set forth in Example 3."}, "[6]": {"tested_on": "GL261 glioma cells", "test": "Cell viability of GL261 cells (DM1, cD31N-DM1)", "format": "cell-based", "conditions": "after 6 days", "text": "as §1"}, "[7]": {"tested_on": "Capan-1 pancreatic cancer cells", "test": "Cell viability of Capan-1 cells (DM1, cD31N-DM1)", "format": "cell-based", "conditions": "after 6 days", "text": "as §1"}, "[8]": {"tested_on": "BRCA2^−/− DLD-1 colorectal adenocarcinoma cells", "test": "Cell viability assay in BRCA2-/- DLD-1 cells", "format": "cell-based, human", "conditions": "BRCA2-/- DLD-1 cells, after 6 days", "text": "as §1, §3"}}, "data": [{"smiles": "COc1cc2cc(c1Cl)N(C)C(=O)C[C@H](OC(=O)[C@H](C)N(C)C(=O)CCS)[C@]1(C)O[C@H]1[C@H](C)[C@@H]1C[C@@](O)(NC(=O)O1)[C@H](OC)/C=C/C=C(\\C)C2", "note": "[DM1, N(2′)-deacetyl-N(2′)-(3-mercapto-1-oxopropyl)-maytansine]", "values": [{"measurement": "cytotoxicity (cell viability)", "setting": "[1]", "value": "cytotoxic to the DAYO medulloblastoma cells in a concentration-dependent manner"}, {"measurement": "cytotoxicity (cell viability)", "setting": "[2]", "value": "cytotoxic to B16 melanoma cells in a concentration-dependent manner"}, {"measurement": "cytotoxicity (cell viability)", "setting": "[3]", "value": "cytotoxic"}, {"measurement": "cytotoxicity (cell viability)", "setting": "[4]", "value": "cytotoxic"}, {"measurement": "cytotoxicity (cell viability)", "setting": "[5]", "value": "cytotoxic"}, {"measurement": "cytotoxicity (cell viability)", "setting": "[6]", "value": "cytotoxic to the GL261 glioma cells in a concentration-dependent manner"}, {"measurement": "cytotoxicity (cell viability)", "setting": "[7]", "value": "cytotoxic to the Capan-1 pancreatic cancer cells in a concentration-dependent manner"}, {"measurement": "cytotoxicity (cell viability)", "setting": "[8]", "value": "cytotoxic"}]}]}
